Entries after “also recorded” stand apart in the source; their conditions may differ.
Assays:
[1] = system: Corynebacterium glutamicum R; test: Influence of aniline addition on aerobic growth; assay type: cell-based; details: for growth of Corynebacterium glutamicum: aerobic culture 33° C., OD610
Experimental: Corynebacterium glutamicum R was applied to A agar medium (2 g of (NH2)2CO3 7 g of (NH4)2SO4, 0.5 g of KH2PO4, 0.5 g of K2HPO4, 0.5 g of MgSO4.7H2O, 1 mL of 0.06% (w/v) Fe2SO4.7H2O+0.042% (w/v) MnSO4.2H2O, 1 mL of 0.02% (w/v) biotin solution, 2 mL of 0.01% (w/v) thiamin solution, 2 g of yeast extract, 7 g of vitamin assay casamino acid, 40 g of glucose, and 15 g of agar were suspended in 1 L of distilled water) and was left stand in the dark at 33° C. for 15 hours.
An inoculation loop of the Corynebacterium glutamicum R grown on a plate as above was inoculated into a test tube containing 10 mL of A liquid medium (2 g of (NH2)2CO3 7 g of (NH4)2SO4, 0.5 g of KH2PO4, 0.5 g of K2HPO4, 0.5 g of MgSO4.7H2O, 1 mL of 0.06% (w/v) Fe2SO4.7H2O+0.042% (w/v) MnSO4.2H2O, 1 mL of 0.02% (w/v) biotin solution, 2 mL of 0.01% (w/v) thiamin solution, 2 g of yeast extract, 7 g of vitamin assay casamino acid, and 40 g of glucose were suspended in 1 L of distilled water) and was aerobically cultured with shaking at 33° C. for 15 hours.
(§1) The Corynebacterium glutamicum R grown in the above conditions was inoculated into 10 mL of A liquid medium in such a way that the initial bacterial cell concentration would be OD610=0.1, aniline was added at the same time in such a way that the final concentration would be 0, 20, 40, 60, or 80 mM, and aerobic culture was performed with shaking at 33° C. The growth of the bacterial cells was determined by absorbance measurement at OD610.
The vertical axis of FIG. 3 indicates OD610.

Escherichia coli HST02 = test: Growth inhibition experiment in aerobic culture, influence of aniline; assay type: cell-based; details: for growth of Escherichia coli HST02: aerobic culture 37° C., OD610
Experimental: A growth inhibition experiment in aerobic culture was performed to examine the influence of aniline on Escherichia coli.
Escherichia coli HST02 was applied to LB agar medium (1% polypeptone, 0.5% yeast extract, 0.5% NaCl and 1.5% agar) and was left stand in the dark at 37° C. for 15 hours.
An inoculation loop of the Escherichia coli HST02 grown on a plate as above was inoculated into a test tube containing 10 mL of LB liquid medium (1% polypeptone, 0.5% yeast extract, and 0.5% NaCl), and aerobic culture was performed with shaking at 37° C. for 13 hours.
as §1, with “The Escherichia coli HST02” for “The Corynebacterium glutamicum R”, “into 100” for “into 10”, “of LB” for “of A”, “at 37°” for “at 33°”, “OD610. […] The vertical axis of FIG. 2 indicates OD610.” for “OD610.”

## Nc1ccccc1 [aniline]
[1]; 40 mM aniline
  growth of Corynebacterium glutamicum: hardly affected
[1]; 60 mM aniline
  growth of Corynebacterium glutamicum: able to grow
[1]; aniline level increased up to 60 mM, aerobic culture
  growth of coryneform bacterium: can grow
Escherichia coli HST02; 20 mM aniline
  growth of Escherichia coli HST02: notably inhibited
Escherichia coli HST02; 40 mM aniline
  growth of Escherichia coli HST02: significantly inhibited; also recorded: significantly affected
Escherichia coli HST02; 60 mM aniline
  growth of Escherichia coli HST02: completely inhibited
Escherichia coli HST02; aniline level of 20 mM or higher, aerobic culture
  growth of Escherichia coli: greatly affected

Source: US9803223B2, “Coryneform bacterium transformant with improved aniline productivity and process for producing aniline using the same” (RESEARCH INSTITUTE OF INNOVATIVE TECHNOLOGY FOR THE EARTH, priority 2013, dated 2017)
